Reference: publication PMC4645160, “Targeting kinases with anilinopyrimidines: discovery of N-phenyl-N’-[4-(pyrimidin-4-ylamino)phenyl]urea derivatives as selective inhibitors of class III receptor tyrosine kinase subfamily” (Scientific Reports, 2015)

Experiments:
2008 cells = assay: MTT cytotoxicity assay, 2008 ovarian cancer cells; assay type: cell-based; conditions: Homo sapiens; MTT test, 72 h; read-out: 2008 IC50 (μM) ± SD
Experimental: The cytotoxic profile of 19 and 27 was assessed on a wider panel of human tumor cell lines including also examples of breast (MCF-7), cervical (A431), colorectal (HCT-15), and ovarian (2008) cancers as well as melanoma (A375), besides lung (A549) and pancreatic (BxPC3) cancer cells. IC50 values, calculated from the dose-survival curves obtained after 72 h of drug treatment from the MTT test, are reported in Table 2. […] Both compounds were endowed with a cytotoxic potency higher than that of SU, eliciting IC50 values in the low micromolar range.
All compounds, except derivative 27, were dissolved in DMSO just before the experiment, and a calculated amount of drug solution was added to the cell growth medium to a final solvent concentration of 0.5%, which had no discernible effect on cell killing. Compound 27 was dissolved in a 0.9% NaCl solution just before the experiment.
Human lung (A549), breast (MCF-7), pancreas (BxPC3), and colon (LoVo) carcinoma cell lines along with melanoma (A375) were obtained from American Type Culture Collection (ATCC, Rockville, MD). Human non-tumor embryonic kidney HEK293 cells were obtained from European Collection of Cell Cultures (ECACC, Salisbury, UK). Human cervical carcinoma A431cells were kindly provided by Prof. F. Zunino (Division of Experimental Oncology B, Istituto Nazionale dei Tumori, Milan, Italy). Human ovarian cancer 2008 cells were kindly provided by Prof. G. Marverti (Dept. of Biomedical Science of Modena University, Italy). […]
The growth inhibitory effect towards human cell lines was evaluated by means of MTT (tetrazolium salt reduction) assay. […] After overnight incubation, the inhibition of cell growth induced by the tested complexes was detected by measuring the absorbance of each well at 570 nm using a Bio-Rad 680 microplate reader (Bio-Rad, Hercules, CA). Mean absorbance for each drug dose was expressed as a percentage of the control untreated well absorbance and plotted vs drug concentration.

HEK293 cells = assay: MTT cytotoxicity assay, non-tumor HEK293 cells; assay type: cell-based, human; conditions: for IC50: Homo sapiens, HEK293, MTT test, 72 h, non-tumor cells, read-out: HEK293 IC50 (μM) ± SD
Experimental: F. Zunino (Division of Experimental Oncology B, Istituto Nazionale dei Tumori, Milan, Italy).
The growth inhibitory effect towards human cell lines was evaluated by means of MTT (tetrazolium salt reduction) assay. […] Triplicate cultures were established for each treatment.

panel of 48 kinases = assay: KinomeScan primary screening (POC) at 10 μM; assay type: binding, human; conditions: POC values
From the text: Synthesized compounds were screened against a panel of 48 kinases selected within the ScanEDGE subset of DiscoverX (http://www.discoverx.com/services/drug-discovery-development-services/kinase-profiling/kinomescan/scanedge). The ScanEDGE includes 97 kinases and is an economical approach to assess compounds selectivity throughout the human kinome. All the wt-TKs along with some relevant mutants of Abl1 (T315I) and of EGFR (L858R and L858R/T790M) were chosen. The remaining 18 targets (3 Tyrosine Kinases-Like, TKLs; 15 Serine-Threonine Kinases, STKs) were selected among the remaining kinases in the ScanEDGE subset on the basis of their well established role in cancer (see Fig. S2 for a graphical representation of the selected kinases with reference to the kinome tree. Some references highlighting the role of each kinase in cancer are also reported in Table S3).
The compounds were evaluated using the KinomeScan™ platform (http://www.discoverx.com/services/drug-discovery-development-services/kinase-profiling/kinomescan), that measures the ability of the test compound to disrupt the complex between a high affinity ATP-mimic probe immobilized on a solid support and the kinase of interest. The KinomeScan is a very helpful technology for the fast and reliable screening of a number of compounds against a wide and customizable panel of kinases. Besides, it is not based on the use of hazardous radioactive ^32P-ATP and has a very low rate of false positive (<1%)[44]. The screening platform outputs a “Percent of Control” (POC) value, statistically correlated to the dissociation constant (Kd) value (http://www.discoverx.com/tools-resources/leadhunter-study-reports-data-analysis), for each pair of kinase/ligand. The POC is calculated as reported in equation (1):
Where: test compound signal = amount of kinase still binding the probe after treatment with test compound; negative control signal = amount of kinase still binding the probe after treatment with DMSO (100% control); positive control signal = amount of kinase still binding the probe after treatment with control compound (0% control).
The compounds were tested at high concentration (10 μM), in order to highlight not only the main target but also the off-targets. The results of the preliminary screening are reported as heat map (Fig. 4; see also Table S4 for all the measured values), in which the compounds are grouped on the basis of the 6 or 5 substituent at the pyrimidine ring.

Q: O=C(Nc1ccccc1)Nc1ccc(Nc2cc(-c3ccccc3)ncn2)cc1 [Compound 19] was tested. Which IC50 (2008 cells) did it give?
A: 1.98 ± 0.75 µM

Q: And the IC50 (HEK293 cells)?
A: 7.33 ± 1.75 µM

Q: And the “Selectivity Index” value (HEK293 cells; IC50 toward non cancerous HEK293 cells divided by the average IC50 for the malignant cells (A549, BxPC3))?
A: 3.84

Q: What about the “Selectivity index, folds higher than that calculated with SU” value (HEK293 cells; SI of compound versus SI of SU) of the same molecule?
A: approximately 1.5

Q: And the “Selectivity profile (kinases targeted) in primary screening” value (panel of 48 kinases)?
A: class III RTK

Q: What does the source list for O=C(CN1CCOCC1)Nc1cccc(-c2cc(Nc3ccc(NC(=O)Nc4ccccc4)cc3)ncn2)c1 [Compound 27]?
A: IC50 (2008 cells): 1.82 ± 0.73 µM; IC50 (HEK293 cells): 10 µM
